What all share (assay type): toxicity, cell-based
One data set relates to HEK-293T. Nature of the data set: Incucyte cell viability with HEK293T. The following applies: human, 10 µM, compound concentration 10 uM.
A further data set deals with Fibroblast. Nature of the data set: Incucyte cell viability with human fibroblast. The following applies: 10 µM, compound concentration 10 uM.
The test system of another data set is U2OS. Description: Incucyte cell viability with U2OS. The following applies: human, 10 µM, compound concentration 10 uM.
Setting [1] is: 0 h, replicate number 1, timepoint 0 hours.
Setting [2] is: 0 h, replicate number 2, timepoint 0 hours.
Where [3] appears, read: 6 h, replicate number 1, timepoint 6 hours.
The mark [4] stands for this setting: 24 h, replicate number 1, timepoint 24 hours.
[5] abbreviates: 18 h, replicate number 2, timepoint 18 hours.
[6] abbreviates: 24 h, replicate number 2, timepoint 24 hours.
[7] abbreviates: 6 h, replicate number 2, timepoint 6 hours.
Setting [8] is: 12 h, replicate number 1, timepoint 12 hours.
The mark [9] stands for this setting: 12 h, replicate number 2, timepoint 12 hours.
[10] abbreviates: 18 h, replicate number 1, timepoint 18 hours.
Also: unitless GR value; below 1 slowed growth and below 0 cell loss.

Consider `COc1ccc2[nH]cc(CCNC(C)=O)c2c1` [MELATONIN], for which the “Growth Rate” value is on record as 0.52 with HEK-293T (setting [1]); 0.8 with HEK-293T (setting [2]); 0.93 in the data set with HEK-293T (setting [3]); 0.94 with HEK-293T (setting [4]); 0.91 in the data set with Fibroblast (setting [1]); 0.06 in the data set on Fibroblast (setting [2]). Besides, the “Growth Rate” value in the data set with U2OS (setting [2]) was 0.55; in the data set on U2OS (setting [5]), 0.85; in the data set with U2OS (setting [6]) it was 0.97.
`CN(C)C/C=C/C(=O)Nc1ccc(C(=O)N2CCCC(Nc3ncc(Cl)c(-c4c[nH]c5ccccc45)n3)C2)cc1` (centres undefined): the “Growth Rate” value with HEK-293T (setting [3]) is on record as -0.75; with HEK-293T (setting [7]), -0.93; in the data set on HEK-293T (setting [8]), -0.58; in the data set on HEK-293T (setting [9]) it was -0.66; in the data set with HEK-293T (setting [10]), -0.42; with HEK-293T (setting [5]), -0.43. Also, the “Growth Rate” value with HEK-293T (setting [4]) is on record as -0.27; in the data set with HEK-293T (setting [6]), -0.31; in the data set with Fibroblast (setting [3]), -0.96; with Fibroblast (setting [7]), -0.55; with Fibroblast (setting [8]), -0.75; with Fibroblast (setting [9]), -0.33. Further, the “Growth Rate” value in the data set on Fibroblast (setting [10]) is reported as -0.7; with Fibroblast (setting [5]) it was -0.1; in the data set with Fibroblast (setting [4]), -0.55; in the data set with Fibroblast (setting [6]) it was -0.06; with U2OS (setting [1]), -0.56; in the data set with U2OS (setting [2]) it was 0.12. Further, the “Growth Rate” value in the data set on U2OS (setting [3]) is 0.53; in the data set on U2OS (setting [8]), 0.51; in the data set on U2OS (setting [9]), 0.63; in the data set on U2OS (setting [10]) it was 0.27; with U2OS (setting [5]), 0.26; in the data set on U2OS (setting [4]) it was 0.09. In the data set on U2OS (setting [6]), the “Growth Rate” value came out at 0.13.
Consider `COc1ccc(CN(CCN(C)C)c2ccccn2)cc1` [PYRILAMINE], for which the “Growth Rate” value in the data set with HEK-293T (setting [7]) is listed as 0.74; in the data set on HEK-293T (setting [8]), 0.94; in the data set on HEK-293T (setting [9]) it was 0.74; with Fibroblast (setting [2]), 0.99; in the data set with Fibroblast (setting [3]), 0.36; with Fibroblast (setting [7]), 0.26. The “Growth Rate” value is on record as 0.52 with U2OS (setting [1]), 0.91 with U2OS (setting [5]), 1 with U2OS (setting [4]) and 0.96 in the data set on U2OS (setting [6]).
As to `CCCN1CCC[C@@H]2Cc3n[nH]cc3C[C@H]21.Cl` [QUINPIROLE HYDROCHLORIDE], the “Growth Rate” value with HEK-293T (setting [2]) is listed as 0.26; with HEK-293T (setting [3]), 0.41; with Fibroblast (setting [1]), -0.18; with Fibroblast (setting [2]), 0.29; in the data set on Fibroblast (setting [3]), 0.59; with Fibroblast (setting [8]) it was 0.29. Besides, the “Growth Rate” value with Fibroblast (setting [10]) was 0.54; in the data set with U2OS (setting [3]), -0.04; in the data set on U2OS (setting [7]), 0.9; in the data set with U2OS (setting [9]) it was 0.66; with U2OS (setting [10]), 0.9; in the data set on U2OS (setting [5]) it was 0.96. Also, the results for the “Growth Rate” value in the data set on U2OS (setting [4]) and in the data set with U2OS (setting [6]) were 0.88 and 0.96, respectively.
For `Cc1c(C(=O)NN2CCCCC2)nn(-c2ccc(Cl)cc2Cl)c1-c1ccc(Cl)cc1` [RIMONABANT], the “Growth Rate” value is 0.19 with HEK-293T (setting [1]); -0.01 in the data set on HEK-293T (setting [2]); 0.97 in the data set with Fibroblast (setting [2]); -0.42 in the data set with Fibroblast (setting [3]); -0.46 with Fibroblast (setting [7]); 0.04 with Fibroblast (setting [8]). Also, the “Growth Rate” value with Fibroblast (setting [9]) was 0; with Fibroblast (setting [10]), -0.03; in the data set on Fibroblast (setting [5]), 0.53; with Fibroblast (setting [4]), 0.03; with Fibroblast (setting [6]), 0.42; in the data set with U2OS (setting [1]), 0.12. Also, the entries for the “Growth Rate” value with U2OS (setting [2]), with U2OS (setting [5]) and with U2OS (setting [4]) were -1, 0.98 and 0.8, respectively.
Take `Fc1cccc(/C=N/N=C/c2cccc(F)c2)c1`: the “Growth Rate” value in the data set with HEK-293T (setting [2]) is 0.2; with HEK-293T (setting [3]), 0.72; in the data set with HEK-293T (setting [8]), 0.77; with HEK-293T (setting [10]), 0.89; with HEK-293T (setting [4]) it was 0.96; in the data set with Fibroblast (setting [3]), -0.08. In addition, the “Growth Rate” value is reported as 0.7 in the data set on Fibroblast (setting [8]); 0.91 in the data set with Fibroblast (setting [4]); 0.84 in the data set on U2OS (setting [2]); 0.83 in the data set with U2OS (setting [7]); 0.84 with U2OS (setting [9]).
In the case of `CC(C)(C)c1ccc(CSc2cnn(C(C)(C)C)c(=O)c2Cl)cc1` [PYRIDABEN], the “Growth Rate” value with HEK-293T (setting [1]) is 0.63; with HEK-293T (setting [2]), 0.94; in the data set on HEK-293T (setting [3]), -0.14; in the data set with HEK-293T (setting [7]), -0.1; with HEK-293T (setting [8]), 0.01; with HEK-293T (setting [9]), -0.01. Besides, the “Growth Rate” value in the data set with HEK-293T (setting [10]) is given as 0.13; with HEK-293T (setting [5]) it was 0.2; in the data set on HEK-293T (setting [4]), 0.1; in the data set on HEK-293T (setting [6]), 0.22; in the data set with Fibroblast (setting [2]), -0.26; with Fibroblast (setting [3]), -0.33. Further, the “Growth Rate” value is given as 0.56 with Fibroblast (setting [7]); -0.26 in the data set with Fibroblast (setting [8]); 0.81 with Fibroblast (setting [9]); -0.13 in the data set with Fibroblast (setting [10]); 0.71 in the data set on Fibroblast (setting [5]); -0.12 in the data set on Fibroblast (setting [4]). Further, the “Growth Rate” value in the data set with Fibroblast (setting [6]) was 0.08; in the data set on U2OS (setting [2]) it was -1; in the data set with U2OS (setting [10]), 0.62; in the data set with U2OS (setting [5]), 0.92; in the data set on U2OS (setting [4]), 0.86; in the data set with U2OS (setting [6]), 0.96.
In the case of `C=CCNc1ncnc2ccc(Br)cc12`, the “Growth Rate” value in the data set with HEK-293T (setting [1]) is on record as 0.98; in the data set on HEK-293T (setting [2]), 0.64; with HEK-293T (setting [3]) it was 0.57; in the data set on HEK-293T (setting [8]), 0.84; in the data set with HEK-293T (setting [10]), 0.58; in the data set on HEK-293T (setting [5]), 0.9. The “Growth Rate” value is listed as 0.91 with HEK-293T (setting [4]); 0.96 in the data set with HEK-293T (setting [6]); 0.05 with Fibroblast (setting [2]); 0.47 in the data set on Fibroblast (setting [8]); 0.3 with Fibroblast (setting [10]); 0.98 in the data set with Fibroblast (setting [5]). For the same molecule, the “Growth Rate” value in the data set with Fibroblast (setting [4]) is recorded as 0.45; in the data set on Fibroblast (setting [6]), 0.75; in the data set with U2OS (setting [2]), 0.44; in the data set on U2OS (setting [8]), 0.96; in the data set with U2OS (setting [9]), 0.77; in the data set with U2OS (setting [10]) it was 0.82. Besides, the entries for the “Growth Rate” value in the data set on U2OS (setting [5]), in the data set on U2OS (setting [4]) and in the data set with U2OS (setting [6]) were 0.85, 0.97 and 0.9, respectively.
As for `CNc1nc(NCc2ncccn2)c2c(-c3ccc4ncccc4c3)c[nH]c2n1`, the “Growth Rate” value in the data set with HEK-293T (setting [1]) is given as 0.21; with HEK-293T (setting [2]), 0.76; in the data set on HEK-293T (setting [3]), 0.37; with HEK-293T (setting [7]), 0.12; in the data set on HEK-293T (setting [8]), -0.16; in the data set with HEK-293T (setting [9]) it was -0.1. Further, the “Growth Rate” value in the data set with HEK-293T (setting [10]) is given as -0.23; in the data set on HEK-293T (setting [5]) it was -0.28; in the data set with HEK-293T (setting [4]), -0.25; in the data set on Fibroblast (setting [1]), 0.14; in the data set with Fibroblast (setting [2]), 0.3; with Fibroblast (setting [8]), 0.36. For the same molecule, the “Growth Rate” value in the data set with Fibroblast (setting [10]) is given as -0.14; in the data set on Fibroblast (setting [4]), 0.06; in the data set on U2OS (setting [1]) it was 0.67; in the data set on U2OS (setting [9]) it was 0.95; with U2OS (setting [10]), 0.27; in the data set with U2OS (setting [5]) it was 0.56. Further, the “Growth Rate” value in the data set with U2OS (setting [4]) came to 0.4; in the data set on U2OS (setting [6]), 0.42.

The record behind these values is ChEMBL document CHEMBL5058564, “EUbOPEN Chemogenomics Library 2 (Incucyte)” (2022).
